Test: In vitro transdermal permeation test (Franz horizontal two-chamber diffusion cell, pig ear skin)
Format: in vitro ADME
Conditions: Examples 33-38, compared with no enhancer; 0.1 g enhancer, 1 mmol rivastigmine salicylate ionic liquid in 2 g adhesive (Example 10); result in words

Row | Structure (SMILES) | promotion of rivastigmine cumulative permeation amount by transdermal absorption enhancer
1 | CCCCCCCC/C=C\CCCCCCCC(=O)O [油酸] | 没有显著促进
2 | CC1CCC(C(C)C)C(O)C1 (centres unmarked) [薄荷醇] | 没有显著促进
